Test results as given in patent publication US9944602B2, “Piperidinone herbicides” (E. I. DU PONT DE NEMOURS AND COMPANY, priority 2014, dated 2018).

Key:
Format in all cases: in vivo
[1] = test system: barnyardgrass (Echinochloa crus-galli); test: Test A preemergence barnyardgrass; conditions: 0 to 100 scale; for pest or weed control at 125 g/ha: 125 g ai/ha
In short: (§1)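 Directed soil spray at planting gives preemergence data; foliar application to one- to two-leaf plants gives postemergence data. Response is visual injury relative to untreated controls about 10 d after treatment, scored 0–100.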

[2] = test system: foxtail, giant (giant foxtail, Setaria faberii); test: Test A preemergence foxtail, giant; conditions: Setaria faberi, pre-emergence, 240 h, 0 to 100 scale, 0 no effect, 100 complete control, read-out: Foxtail, Giant plant response rating; for pest or weed control at 125 g/ha: 125 g ai/ha; for pest or weed control at 500 g/ha: 500 g ai/ha
In short: as §1

[3] = test system: pigweed (Amaranthus retroflexus); test: Test A preemergence pigweed; conditions: Amaranthus retroflexus, pre-emergence, 240 h, 0 to 100 scale, 0 no effect, 100 complete control, read-out: Pigweed plant response rating; for pest or weed control at 125 g/ha: 125 g ai/ha; for pest or weed control at 500 g/ha: 500 g ai/ha
In short: as §1

[4] = test system: barnyardgrass (Echinochloa crus-galli); test: Test A postemergence barnyardgrass; conditions: Echinochloa crus-galli, post-emergence, 240 h, 0 to 100 scale, 0 is no effect, 100 is complete control, read-out: Plant response rating, Barnyardgrass; for pest or weed control at 125 g/ha: 125 g ai/ha; for pest or weed control at 500 g/ha: 500 g ai/ha
In short: as §1

[5] = test system: foxtail, giant (giant foxtail, Setaria faberii); test: Test A postemergence foxtail, giant; conditions: Setaria faberi, post-emergence, 240 h, 0 to 100 scale, 0 is no effect, 100 is complete control, read-out: Plant response rating, Foxtail, Giant; for pest or weed control at 125 g/ha: 125 g ai/ha; for pest or weed control at 500 g/ha: 500 g ai/ha
In short: as §1

[6] = test system: pigweed (Amaranthus retroflexus); test: Test A postemergence pigweed; conditions: Amaranthus retroflexus, post-emergence, 240 h, 0 to 100 scale, 0 is no effect, 100 is complete control, read-out: Plant response rating, Pigweed; for pest or weed control at 125 g/ha: 125 g ai/ha; for pest or weed control at 500 g/ha: 500 g ai/ha
In short: as §1

[7] = test system: wheat (Triticum aestivum); test: Test A postemergence wheat; conditions: Triticum aestivum, post-emergence, 240 h, 0 to 100 scale, 0 is no effect, 100 is complete control, read-out: Plant response rating, Wheat; for plant injury at 125 g/ha: 125 g ai/ha; for plant injury at 500 g/ha: 500 g ai/ha
In short: as §1

corn (Zea mays) = test: Test A postemergence corn; conditions: Zea mays, post-emergence, 240 h, 0 to 100 scale, 0 is no effect, 100 is complete control; for Corn plant response rating (crop injury, 0 = no effect, 100 = complete kill) at 125 g/ha: 125 g ai/ha; for Corn plant response rating (crop injury, 0 = no effect, 100 = complete kill) at 500 g/ha: 500 g ai/ha
In short: as §1

rice (Oryza sativa) [8] = test: Test B flooded paddy test rice; conditions: Oryza sativa, Table B, Flood, 250 g ai/ha, scale 0 to 100, read-out: Plant response rating
In short: (§2)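 Once seedlings reached two leaves, pots were flooded 3 cm deep and treated via the paddy water, which remained at that level. Evaluation was visual, against controls, after 13 to 15 d under greenhouse conditions.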

[9] = test system: sedge, umbrella (small-flower umbrella sedge, Cyperus difformis); test: Test B flooded paddy test sedge, umbrella; conditions: Cyperus difformis, Table B, Flood, 250 g ai/ha, scale 0 to 100, read-out: Plant response rating
In short: as §2

[10] = test system: ducksalad (Heteranthera limosa); test: Test B flooded paddy test ducksalad; conditions: Heteranthera limosa, Table B, Flood, 250 g ai/ha, scale 0 to 100, read-out: Plant response rating
In short: as §2

[11] = test system: barnyardgrass (Echinochloa crus-galli); test: Test B flooded paddy test barnyardgrass; conditions: Echinochloa crus-galli, Table B, Flood, 250 g ai/ha, scale 0 to 100, read-out: Plant response rating
In short: as §2

rice (Oryza sativa) [12] = test: Test C flooded paddy test rice; conditions: Table C, Flood, 1000 g ai/ha, scale 0 to 100
Source text: (§3) Plant species in the flooded paddy test consisted of rice (Oryza sativa), sedge, umbrella (small-flower umbrella sedge, Cyperus difformis), ducksalad (Heteranthera limosa), and barnyardgrass (Echinochloa crus-galli) grown to the 2-leaf stage for testing. At time of treatment, test pots were flooded to 3 cm above the soil surface, treated by application of test compounds directly to the paddy water, and then maintained at that water depth for the duration of the test. Treated plants and controls were maintained in a greenhouse for 13 to 15 d, after which time all species were compared to controls and visually evaluated. Plant response ratings, summarized in Table C, are based on a scale of 0 to 100 where 0 is no effect and 100 is complete control. A dash (-) response means no test result.

[13] = test system: sedge, umbrella (small-flower umbrella sedge, Cyperus difformis); test: Test C flooded paddy test sedge, umbrella; conditions: Table C, Flood, 1000 g ai/ha, scale 0 to 100
Source text: as §3

[14] = test system: ducksalad (Heteranthera limosa); test: Test C flooded paddy test ducksalad; conditions: Table C, Flood, 1000 g ai/ha, scale 0 to 100
Source text: as §3

[15] = test system: barnyardgrass (Echinochloa crus-galli); test: Test C flooded paddy test barnyardgrass; conditions: Table C, Flood, 1000 g ai/ha, scale 0 to 100
Source text: as §3

kochia (Kochia scoparia) [16] = test: Test A preemergence kochia; conditions: Bassia scoparia, pre-emergence, 240 h, 0 to 100 scale, 0 no effect, 100 complete control, read-out: Kochia plant response rating
In short: as §1

[17] = test system: ragweed (common ragweed, Ambrosia elatior); test: Test A preemergence ragweed; conditions: Ambrosia artemisiifolia, pre-emergence, 240 h, 0 to 100 scale, 0 no effect, 100 complete control, read-out: Ragweed plant response rating
In short: as §1

[18] = test system: ryegrass, Italian (Italian ryegrass, Lolium multiflorum); test: Test A preemergence ryegrass, Italian; conditions: Lolium multiflorum, pre-emergence, 240 h, 0 to 100 scale, 0 no effect, 100 complete control, read-out: Ryegrass, Italian plant response rating
In short: as §1

kochia (Kochia scoparia) [19] = test: Test A postemergence kochia; conditions: Bassia scoparia, post-emergence, 240 h, 0 to 100 scale, 0 is no effect, 100 is complete control, read-out: Plant response rating, Kochia
In short: as §1

[20] = test system: ragweed (common ragweed, Ambrosia elatior); test: Test A postemergence ragweed; conditions: Ambrosia artemisiifolia, post-emergence, 240 h, 0 to 100 scale, 0 is no effect, 100 is complete control, read-out: Plant response rating, Ragweed
In short: as §1

[21] = test system: ryegrass, Italian (Italian ryegrass, Lolium multiflorum); test: Test A postemergence ryegrass, Italian; conditions: Lolium multiflorum, post-emergence, 240 h, 0 to 100 scale, 0 is no effect, 100 is complete control, read-out: Plant response rating, Ryegrass, Italian
In short: as §1

[22] = test system: blackgrass (Alopecurus myosuroides); test: Test A postemergence blackgrass; conditions: Alopecurus myosuroides, post-emergence, 240 h, 0 to 100 scale, 0 is no effect, 100 is complete control, read-out: Plant response rating, Blackgrass
In short: as §1

[23] = test system: galium (catchweed bedstraw, Galium aparine); test: Test A postemergence galium; conditions: Galium, post-emergence, 240 h, 0 to 100 scale, 0 is no effect, 100 is complete control, read-out: Plant response rating, Galium
In short: as §1

[24] = Echinochloa crus-galli, pre-emergence, 240 h, 0 no effect, 100 complete control, read-out: Barnyardgrass plant response rating

`O=C1NCCC(c2cccc(C(F)(F)F)c2)C1C(=O)Nc1cccc(F)c1F` (stereo not drawn) [Compound 9, N-(2,3-difluorophenyl)-2-oxo-4-[3-(trifluoromethyl)phenyl]-3-piperidinecarboxamide] was tested, and the “Plant response rating, Barnyardgrass” value ([1]; 500 g ai/ha, 0 is no effect, 100 is complete control) was 90, the pest or weed control at 125 g/ha [1, 24] was 90% and the pest or weed control at 125 g/ha [2] was 90%. For the same compound, the pest or weed control at 500 g/ha [2] was 90%, the pest or weed control at 125 g/ha [3] was 0% and the pest or weed control at 500 g/ha [3] was 0%. It also gave a pest or weed control at 125 g/ha [4] of 80%, a pest or weed control at 500 g/ha [4] of 90% and a pest or weed control at 125 g/ha [5] of 80%. The pest or weed control at 500 g/ha [5] was 90%, the pest or weed control at 125 g/ha [6] was 0% and the pest or weed control at 500 g/ha [6] was 0%. For the same compound, the plant injury at 125 g/ha [7] was 20%, the plant injury at 500 g/ha [7] was 40% and the Corn plant response rating (crop injury, 0 = no effect, 100 = complete kill) at 125 g/ha (corn (Zea mays)) was 40%. For the same compound, the Corn plant response rating (crop injury, 0 = no effect, 100 = complete kill) at 500 g/ha (corn (Zea mays)) was 80%, the plant injury at 250 g/ha (rice (Oryza sativa) [8]) was 0% and the pest or weed control at 250 g/ha [9] was 0%. The pest or weed control at 250 g/ha [10] was 90%, the pest or weed control at 250 g/ha [11] was 75% and the Plant response rating (rice (Oryza sativa) [12]) was 10. The Plant response rating [13] was 0, the Plant response rating [14] was 98 and the Plant response rating [15] was 80.
`O=C1NCC[C@H](c2ccc(F)cc2)[C@H]1C(=O)Nc1ccccc1C(F)(F)F` [Compound 57, (3R,4S)-4-(4-fluorophenyl)-2-oxo-N-[2-(trifluoromethyl)phenyl]-3-piperidinecarboxamide] gave a pest or weed control at 125 g/ha [1, 24] of 30%, a pest or weed control at 500 g/ha ([1]; Echinochloa crus-galli, pre-emergence, 240 h, 500 g ai/ha, 0 no effect, 100 complete control, read-out: Barnyardgrass plant response rating) of 70% and a pest or weed control at 125 g/ha (kochia (Kochia scoparia) [16]; 125 g ai/ha) of 0%. The pest or weed control at 500 g/ha (kochia (Kochia scoparia) [16]; 500 g ai/ha) was 0%, the pest or weed control at 125 g/ha ([17]; 125 g ai/ha) was 0% and the pest or weed control at 500 g/ha ([17]; 500 g ai/ha) was 0%. The pest or weed control at 125 g/ha ([18]; 125 g ai/ha) was 0%, the pest or weed control at 500 g/ha ([18]; 500 g ai/ha) was 0% and the pest or weed control at 125 g/ha [2] was 60%. For the same compound, the pest or weed control at 500 g/ha [2] was 90%, the pest or weed control at 125 g/ha [3] was 0% and the pest or weed control at 500 g/ha [3] was 0%. The pest or weed control at 125 g/ha [4] was 0%, the pest or weed control at 500 g/ha [4] was 70% and the pest or weed control at 125 g/ha (kochia (Kochia scoparia) [19]; 125 g ai/ha) was 0%. It also gave a pest or weed control at 500 g/ha (kochia (Kochia scoparia) [19]; 500 g ai/ha) of 0%, a pest or weed control at 125 g/ha ([20]; 125 g ai/ha) of 0% and a pest or weed control at 500 g/ha ([20]; 500 g ai/ha) of 0%. It also gave a pest or weed control at 125 g/ha ([21]; 125 g ai/ha) of 0%, a pest or weed control at 500 g/ha ([21]; 500 g ai/ha) of 0% and a pest or weed control at 125 g/ha [5] of 0%. For the same compound, the pest or weed control at 500 g/ha [5] was 60%, the pest or weed control at 125 g/ha [6] was 0% and the pest or weed control at 500 g/ha [6] was 0%. It also gave a plant injury at 125 g/ha [7] of 0%, a plant injury at 500 g/ha [7] of 0% and a Corn plant response rating (crop injury, 0 = no effect, 100 = complete kill) at 125 g/ha (corn (Zea mays)) of 0%. The Corn plant response rating (crop injury, 0 = no effect, 100 = complete kill) at 500 g/ha (corn (Zea mays)) was 0%, the pest or weed control at 125 g/ha ([22]; 125 g ai/ha) was 0% and the pest or weed control at 500 g/ha ([22]; 500 g ai/ha) was 0%. The pest or weed control at 125 g/ha ([23]; 125 g ai/ha) was 0%, the pest or weed control at 500 g/ha ([23]; 500 g ai/ha) was 0% and the plant injury at 250 g/ha (rice (Oryza sativa) [8]) was 0%. The pest or weed control at 250 g/ha [9] was 0%, the pest or weed control at 250 g/ha [10] was 40% and the pest or weed control at 250 g/ha [11] was 0%.
